Data published in BindingDB's records for PubMed 11454905 (Eli Lilly, 2001).
Residues, ends and D or L forms follow the SMILES beside them.

Molecular target: Metabotropic glutamate receptor 3 (Rattus norvegicus, UniProt P31422)
Sequence (P31422 whole entry): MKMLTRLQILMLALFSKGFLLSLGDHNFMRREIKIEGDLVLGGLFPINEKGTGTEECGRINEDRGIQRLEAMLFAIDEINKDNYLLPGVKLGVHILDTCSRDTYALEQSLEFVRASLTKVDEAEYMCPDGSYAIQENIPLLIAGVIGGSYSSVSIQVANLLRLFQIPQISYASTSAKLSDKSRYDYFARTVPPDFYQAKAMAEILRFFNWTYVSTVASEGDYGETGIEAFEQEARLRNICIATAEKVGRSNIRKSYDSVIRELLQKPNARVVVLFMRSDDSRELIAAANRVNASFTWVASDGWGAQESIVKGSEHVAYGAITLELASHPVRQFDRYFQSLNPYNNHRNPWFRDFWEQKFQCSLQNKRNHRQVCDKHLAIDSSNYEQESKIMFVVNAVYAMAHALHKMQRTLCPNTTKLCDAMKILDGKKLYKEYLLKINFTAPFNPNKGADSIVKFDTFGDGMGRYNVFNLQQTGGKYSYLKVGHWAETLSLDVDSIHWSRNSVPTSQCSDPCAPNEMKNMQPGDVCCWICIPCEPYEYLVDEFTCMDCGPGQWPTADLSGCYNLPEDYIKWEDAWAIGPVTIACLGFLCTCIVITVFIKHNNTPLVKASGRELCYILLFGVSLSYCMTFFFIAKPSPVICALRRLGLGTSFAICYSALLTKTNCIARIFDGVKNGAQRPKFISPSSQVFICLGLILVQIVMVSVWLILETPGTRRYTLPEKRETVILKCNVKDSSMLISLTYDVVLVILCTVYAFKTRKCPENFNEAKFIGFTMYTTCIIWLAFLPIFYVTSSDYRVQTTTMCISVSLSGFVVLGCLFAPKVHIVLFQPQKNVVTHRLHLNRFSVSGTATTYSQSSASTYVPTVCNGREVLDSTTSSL

| Compound | Ki [µM] |
| --- | --- |
| N[C@@H](CCC(=O)O)C(=O)O [L-Glutamic acid] | > 10 |
| N[C@H](CP(=O)(O)O)C(=O)O [CAS_23052-80-4] | > 10 |
| N[C@@]1(C(=O)O)CC[C@H](C(=O)O)C1 [1S, 3R-ACPD] | > 10 |
| N[C@@H](CC(=O)O)C(=O)O [L-Aspartic acid, 2] | > 10 |
| C[C@@](N)(C(=O)O)c1ccc(C(=O)O)cc1 (racemic) | > 10 |
| N[C@@]1(C(=O)O)CN[C@@H](C(=O)O)C1 [2R, 4R-APDC] | 2.73 |
| O=C(O)[C@H]1[C@H]2CN[C@H](C(=O)O)[C@H]21 | > 10 |
| CC(N)(C(=O)O)c1ccc(P(=O)(O)O)cc1 (configuration not stated) | > 10 |
| N[C@@]1(C(=O)O)CC[C@H](CC(=O)O)C1 [(1S,3S)-HOMO-ACPD] | 8.69 |
| N[C@@H](Cn1oc(=O)[nH]c1=O)C(=O)O [2-amino-3-(3,5-dioxo[1,2,4]oxadiazolidin-2-yl)propionic acid] | > 10 |
| N[C@@H](CCP(=O)(O)O)C(=O)O | > 10 |
| NC(CCC(=O)O)C(=O)O (configuration not stated) [glutamic acid dianion] | 0.09 |

Second part, the compound after the results:

| Ki [µM] | Compound |
| --- | --- |
| 0.0065 | N[C@@]1(C(=O)O)CO[C@H]2[C@H](C(=O)O)[C@H]21 [LY379268] |
| > 10 | NC(C(=O)O)c1ccc(P(=O)(O)O)cc1 (configuration not stated) [Amino-(4-phosphono-phenyl)-acetic acid(RS-PPG)] |
| 0.0008 | NC(Cn1cnc2c(=O)[nH]c(=O)[nH]c21)(C(=O)O)C1CC1C(=O)O (configuration not stated) [CAS_5311260] |
| 0.061 | N[C@H](C(=O)O)C1[C@@H](C(=O)O)[C@@H]1C(=O)O (some centres not stated) [DCG-IV] |
| > 10 | N[C@@]1(C(=O)O)CC[C@H]2[C@H](C(=O)O)[C@H]21 [(2S,6S)-2-Amino-bicyclo[3.1.0]hexane-2,6-dicarboxylic acid] |
| > 10 | Nc1nc(O)c2ncn(COC(CO)CO)c2n1 [CAS_82410-32-0] |
| > 10 | CC(=O)N[C@@H](CC(=O)O)C(=O)N[C@@H](CCC(=O)O)C(=O)O [[3H]NAAG] (Ac-Asp-Glu-OH) |
| 0.334 | N[C@H](C(=O)O)[C@H]1C[C@H]1C(=O)O [L-CCG-IV] |
| > 10 | O=C(O)[C@H]1CN[C@H](C(=O)O)C1 [t-PDC] |
| 2.01 | N[C@@H](C[C@@H](CCCC(c1ccccc1)c1ccccc1)C(=O)O)C(=O)O [LY307452] |
